Data from publication PMC10377753, “Pharmacokinetic and pharmacodynamic properties of polymyxin B in Escherichia coli and Klebsiella pneumoniae murine infection models” (Journal of Antimicrobial Chemotherapy, 2023).
Counter-ions that a name gives are not always drawn. Bridge positions count the residues as written; N and C are the ends. Square brackets hold non-standard residues; d marks the D form. Peptide text beside a SMILES is read from it. * marks the point of attachment. X1 = CC[C@H](C)CCCCC(=O)*; Dab = NCC[C@H](N)C(=O)O

Assay: Plasma PK after single subcutaneous dose in infected neutropenic mice, population PK model
Assay type: in vivo
Conditions: for Time up to which plasma levels were detectable: LOQ 0.2 mg/L
Protocol: Mice were injected subcutaneously with a 0.1 mL single dose of polymyxin B 2 h after infection (t = 0). The PK of polymyxin B ranging between 0.5 and 64 mg/kg were determined in two mice per dose level. Mice were separated into two groups, with four dose levels studied in the thigh infection model (0.5, 2, 8, 32 mg/kg) and four dose levels studied in the lung infection model (1, 4, 16, 64 mg/kg). At t = 0, two mice were humanely euthanized to determine the bacterial load in the infected organ at the start of infection. At 10 different timepoints, blood was collected under isoflurane anaesthesia, in K3E EDTA tubes (Sarstedt, Nümbracht, Germany) through orbital sinus bleeding, which was immediately followed by cervical dislocation. The collected blood samples were centrifuged immediately at 15 871 RCF for 5 min at 4°C. Plasma was stored at −80°C until analysis.
Polymyxin B concentrations in plasma, BAL and ultrafiltrates were determined by a validated LC-MS/MS method,[18] with a lower limit of quantification (LOQ) of 0.2 mg/L for plasma and 0.05 mg/L for BAL fluid and ultrafiltrates. In this assay, 0.1 mL of plasma or 0.05 mL of BAL fluid or ultrafiltrates was added to 0.05 mL of drug-free plasma, and was mixed with 0.75 mL of phosphate buffer (pH 7.2) and 0.01 mL of internal standard (colistin sulphate, Merck KGaA, Darmstadt, Germany) at 6.25 mg/L for plasma and 5 mg/L for BAL fluid and ultrafiltrates. The samples were briefly vortexed and then centrifuged at 3000 rpm for 5 min. The supernatants (0.8 mL) were loaded onto solid-phase extraction columns (Oasis HLB solid-phase extraction cartridges, 1 mL, 30 mg, Waters, Saint-Quentin-en-Yvelines, France), preconditioned with 1 mL of methanol and followed by 1 mL of water. Columns were washed with 1 mL of water and dried under nitrogen pressure. The analytes were eluted with 0.5% formic acid in methanol and they were evaporated at 45°C under a gentle nitrogen jet stream. The residues were dissolved in 0.1 mL of 0.1% formic acid in water and analysed by LC-MS/MS. The system included an Alliance Waters 2695 LC system module (Waters) coupled with an API Quattro Micro (Waters). Polymyxin B was analysed on an XBridge C18 column (5 µm, 2.1 × 150 mm; Waters). The mobile phase A consisted of 0.1% formic acid in water, and mobile phase B was 0.1% formic acid in acetonitrile. The gradient for mobile phases A and B were respectively set at 75% and 25% with a flow rate of 0.2 mL/min. Electrospray ionization in positive mode was used for the detection of polymyxin B. Ions were analysed in the multiple reaction monitoring, and the following transitions were inspected: m/z 602.1→101 for polymyxin B1, m/z 595.1→101 for polymyxin B2, m/z 585.1→101 for CSTA and m/z 578.1→101 for CSTB. Calibration curves of polymyxin B ranged from 0.1 to 10 mg/L for plasma and ultrafiltrates, and were quantified with a quadratic regression mode. The intraday variability was characterized at four levels (0.3, 1, 2.5 and 10 mg/L) with a precision and bias of <20% for the lowest level, and <15% for the others.
A population PK model was developed using non-linear mixed-effects modelling (NONMEM, version 7.4.2 ICON Development Solutions, Ellicott City, MD, USA). The analysis was performed using the FOCE + I method on logarithmically transformed concentrations and data below the LOQ were omitted. Parameters were calculated for a virtual 1 kg mouse, resulting in pharmacokinetic parameters corresponding on a per kg base. In the first step a structural model was developed, using one- and two-compartment models. The absorption following subcutaneous injections was described using an absorption rate constant (ka). Typical values for central (Vc) and peripheral volume of distribution (Vp), CL and intercompartmental clearance (Q) were estimated. As bioavailability (F) could not be estimated, CL, Vc, Q, and Vp values corresponded to the ratios CL/F, Vc/F, Q/F and Vp/F, respectively. […]

CC[C@H](C)CCCCC(=O)N[C@@H](CCN)C(=O)N[C@H](C(=O)N[C@@H](CCN)C(=O)N[C@H]1CCNC(=O)[C@H]([C@@H](C)O)NC(=O)[C@H](CCN)NC(=O)[C@H](CCN)NC(=O)[C@H](CC(C)C)NC(=O)[C@@H](Cc2ccccc2)NC(=O)[C@H](CCN)NC1=O)[C@@H](C)O [polymyxin B, Polymyxin B sulphate salt] (X1-[Dab]T[Dab][Dab][Dab][dF]L[Dab][Dab]T; lactam 4-C)
ka, absorption rate constant for 10 mg/kg dose (infected neutropenic mice, single s.c. dose 0.5–64 mg/kg, plasma LC-MS/MS, population PK (NONMEM), one-compartment, first-order absorption): 1.63 h⁻¹ | Time up to which plasma levels were detectable (mouse, s.c., doses 16–64 mg/kg): up to 8 h | Time up to which plasma levels were detectable (mouse, s.c., doses up to 8 mg/kg): up to 6 h | Time to peak (Tmax) (mouse, s.c., thigh and lung infection model): ≤ 2 h | CL/F (mouse, sc, 10 mg/kg, infected neutropenic mice, single s.c. dose 0.5–64 mg/kg, plasma LC-MS/MS, population PK (NONMEM), one-compartment, read-out: CL/F, clearance for 10 mg/kg dose (converted)): 6.4 mL/min/kg | Vd/F (mouse, sc, infected neutropenic mice, single s.c. dose 0.5–64 mg/kg, plasma LC-MS/MS, population PK (NONMEM), one-compartment, read-out: Vc/F, central volume of distribution): 0.774 L/kg | Dose on CL, power on covariate effect of dose on CL (population PK model, CL = 0.384 × (DOSE/10)^−0.26): −0.26 | Dose on ka, power on covariate effect of dose on ka (population PK model, ka = 1.63 × (DOSE/10)^−0.407): −0.407
